Ki data for twelve compounds are collected here from patent US11046714B2, “2,2-difluorodioxolo A2A receptor antagonists” (Merck Sharp & Dohme Corp., priority 2013, dated 2021).

pKi: −log10 of the molar value.

The pKi is −log10 of the Ki, conventionally taken in molar units. Lower therefore signals a high Ki.

Sequence of human A2A receptor (P29274 whole entry): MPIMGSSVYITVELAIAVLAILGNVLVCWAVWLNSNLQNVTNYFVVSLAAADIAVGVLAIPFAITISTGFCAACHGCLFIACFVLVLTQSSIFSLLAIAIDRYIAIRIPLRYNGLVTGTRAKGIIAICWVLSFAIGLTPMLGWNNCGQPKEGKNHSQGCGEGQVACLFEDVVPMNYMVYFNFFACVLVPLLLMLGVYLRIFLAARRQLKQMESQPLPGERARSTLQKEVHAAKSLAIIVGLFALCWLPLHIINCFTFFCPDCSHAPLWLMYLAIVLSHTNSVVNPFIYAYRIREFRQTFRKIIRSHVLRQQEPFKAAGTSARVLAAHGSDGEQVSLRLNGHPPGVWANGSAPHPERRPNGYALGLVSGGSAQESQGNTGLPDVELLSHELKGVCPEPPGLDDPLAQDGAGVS

This experiment addresses human A2A receptor (Homo sapiens (Human), UniProt P29274). Nature of the experiment: competition binding assay using Scintillation Proximity technology. The following applies: membranes from CHO-K1 cells expressing the human A2a receptor; 2.0 nM tritiated compound; Cheng-Prusoff. In outline: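 Membranes (1.0 μg) from CHO-K1 cells expressing human A2A were treated with adenosine deaminase, then incubated 1 h at room temperature with compound (3000–0.15 nM) and 2.0 nM tritiated SCH-type ligand on WGA SPA beads in PBS plus 10 mM MgCl2. Nonspecific binding was defined with 1 μM CGS 15943. Ki was derived from EC50 via Cheng-Prusoff.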
(In a scintillation proximity assay essentially only radioactivity close to the scintillant gives light.)
The compound `Nc1nc2c3c(ccc2c2nc(CC4CCN(CCC(F)(F)F)C4)nn12)OC(F)(F)O3` (single isomer, unassigned) [Example 154, (R or S)-2,2-difluoro-8-{[1-(3,3,3-trifluoropropyl)pyrrolidin-3-yl]methyl}[1,3]dioxolo[4,5-h][1,2,4]triazolo[1,5-c]quinazolin-5-amine] had a pKi of 7.70.

With `CC(c1nc2c3ccc4c(c3nc(N)n2n1)OC(F)(F)O4)N1CCCC(F)(F)C1` (single isomer, unassigned) [Example 136, 8-[(1S or 1R)-1-(3,3-difluoropiperidin-1-yl)ethyl]-2,2-difluoro[1,3]dioxolo [4,5-h][1,2,4]triazolo[1,5-c] quinazolin-5-amine], the pKi was 7.60.

In the case of `Nc1nc2c3c(ccc2c2nc(CCN4CC(F)C4)nn12)OC(F)(F)O3` [Example 15, 2,2-difluoro-8-[2-(3-fluoroazetidin-1-yl)ethyl] [1,3]dioxolo[4,5-h][1,2,4] triazolo[1,5-c]quinazolin-5-amine], the negative-log Ki (pKi) was 8.60.

`Nc1nc2c3c(ccc2c2nc(CN4CCN(c5cccc(F)c5)CC45CC5)nn12)OC(F)(F)O3` [Example 104, 2,2-difluoro-8-{[7-(3-fluorophenyl)-4,7-diazaspiro[2.5]oct-4-yl]methyl} [1,3]dioxolo[4,5-h][1,2,4]triazolo [1,5-c]quinazolin-5-amine] gave a pKi of 8.06.

Consider `Nc1nc2c3c(ccc2c2nc(CCN4CCCC5(CCNCC5)C4)nn12)OC(F)(F)O3` [Example 56, 8-[2-(2,9-diazaspiro[5.5]undec-2-yl)ethyl]-2,2-difluoro[1,3] dioxolo[4,5-h][1,2,4]triazolo [1,5-c]quinazolin-5-amine], for which the pKi is 7.57.

`C[C@@H]1CN(CCc2nc3c4ccc5c(c4nc(N)n3n2)OC(F)(F)O5)C[C@H](C)O1` [Example 44, 8-{2-[(2R,6S)-2,6-dimethylmorpholin-4-yl]ethyl}-2,2-difluoro[1,3]dioxolo[4,5-h][1,2,4]triazolo[1,5-c]quinazolin-5-amine] gave a negative-log Ki (pKi) of 7.35.

On to `CC1(F)CCCN(CCc2nc3c4ccc5c(c4nc(N)n3n2)OC(F)(F)O5)C1` (single isomer, unassigned) [Example 64, (R or S)-2,2-difluoro-8-[2-(3-fluoro-3-methylpiperidin-1-yl)ethyl][1,3] dioxolo[4,5-h][1,2,4]triazolo[1,5-c] quinazolin-5-amine], for which the pKi was 8.11.

`Nc1nc2c3c(ccc2c2nc(CC(CCl)CCl)nn12)OC(F)(F)O3` [Example 150, 8-[3-chloro-2-(chloromethyl)propyl]-2,2-difluoro[1,3]dioxolo[4,5-h][1,2,4]triiazolo[1,5-c]quinazolin-5-amine] showed a negative-log Ki (pKi) of 8.64.

`Cc1ncc(N2CCN(Cc3nc4c5ccc6c(c5nc(N)n4n3)OC(F)(F)O6)[C@H](C)C2)s1` [Example 107, 2,2-difluoro-8-{[(2R)-2-methyl-4-(2-methyl-1,3-thiazol-5-yl)piperazin-1-yl]methyl}[1,3]dioxolo[4,5-h][1,2,4] triazolo[1,5-c]quinazolin-5-amine] gave a pKi of 8.40.

As to `Cc1cc(C)n(Cc2nc3c4ccc5c(c4nc(N)n3n2)OC(F)(F)O5)n1` [Example 129, 8-[(3,5-dimethyl-1H-pyrazol-1-yl)methyl]-2,2-difluoro[1,3]dioxolo[4,5-h][1,2,4]triazolo[1,5-c]quinazolin-5-amine], the negative-log Ki (pKi) was 9.00.

Consider `Cc1nc2c(o1)CN(CCc1nc3c4ccc5c(c4nc(N)n3n1)OC(F)(F)O5)CC2` [Example 12, 2,2-difluoro-8-[2-(2-methyl-6,7-dihydro[1,3]oxazolo[5,4-c]pyridin-5(4H)-yl)ethyl][1,3] dioxolo[4,5-h][1,2,4]triazolo [1,5-c]quinazolin-5-amine], for which the negative-log Ki (pKi) was 8.82.

In the case of `Nc1nc2c3c(ccc2c2nc(C4CCCN(c5cccc(F)c5)C4)nn12)OC(F)(F)O3` (single isomer, unassigned) [Example 143, (R or S)-2,2-difluoro-8-[1-(3-fluorophenyl)piperidin-3-yl][1,3]dioxolo[4,5-h][1,2,4]triazolo[1,5-c]quinazolin-5-amine], the pKi was 7.23.
